Measured values taken from PubChem BioAssay AID1224920 (Broad Institute, 2016).
pIC50: −log10 of the molar value. Several values for one entry are separate records, joined by “and”; a condition that tells them apart may be missing. Identical values can stand only once.

Test system: Clostridium difficile clinical isolate growth, OD600, 24 h
Test: growth modulation of Clostridium difficile isolate – OD600, 9-point, retest, dose response (AID 1224920);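 note: inhibitors lower culture turbidity so OD600 falls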

SMILES	pIC50
O=C(NC[C@H]1N[C@H](CO)[C@@H]1c1ccc(C2=CCCC2)cc1)c1ccccc1	4.16
O=C(C[C@H]1CC[C@H]2[C@@H](COC[C@@H](O)CN2C(=O)Nc2ccc(Cl)c(Cl)c2)O1)NC1CCC1	4.71
Cc1cccc(-c2ccc(C3[C@@H]4CN(C(=O)Nc5ccc(C(F)(F)F)cc5)C[C@H]3N4)cc2)c1 (stereo not given in full)	5.56 and 5.60
O=C(Nc1ccc(C(F)(F)F)cc1)N1[C@@H]2CNC[C@H]1C2c1ccc(/C=C/c2ccccc2)cc1 (stereo not given in full)	4.71 and 5.38
O=C(Nc1ccccc1)N1CCCCN2[C@@H](CO)[C@@H](c3ccc(C#Cc4ccccc4)cc3)[C@@H]2C1	4.72
N#Cc1ccc(-c2ccc([C@@H]3[C@H]4CNC[C@@H]3N4Cc3ccc4c(c3)OCO4)cc2)cc1	3.99
O=C(Nc1cccc(F)c1)N1CCCCN2[C@H](CO)[C@H](c3ccc(C#CC4CC4)cc3)[C@H]2C1	4.32
C/C=C/c1ccc(C2[C@@H]3CN(C(=O)Nc4ccc(C(F)(F)F)cc4)C[C@H]2N3)cc1 (stereo not given in full)	4.86 and 4.97
O=C(C[C@@H]1CC[C@@H]2[C@H](COC[C@H](O)CN2C(=O)Nc2cc(Cl)cc(Cl)c2)O1)N1CCOCC1	4.69
C/C=C/c1ccc(C2[C@H]3CNC[C@@H]2N3C(=O)Nc2ccc(C(F)(F)F)cc2)cc1 (stereo not given in full)	4.92
O=C(Nc1ccc(F)cc1)N1CCCCN2[C@H](CO)[C@H](c3ccc(-c4ccccc4F)cc3)[C@H]2C1	4.25
Cc1cccc(-c2ccc(C3[C@@H]4CN(Cc5cccc(F)c5)C[C@H]3N4)cc2)c1 (stereo not given in full)	5.23 and 5.06
O=C(Nc1ccccc1)N1C[C@@H]2N[C@H](C1)C2c1ccc(-c2ccccc2)cc1 (stereo not given in full)	4.22
COc1ccc(NC(=O)N2CCCCN3[C@H](CO)[C@@H](c4ccc(C#Cc5ccccc5)cc4)[C@H]3C2)cc1	4.59
Cc1ccccc1-c1ccc(C2[C@@H]3CN(Cc4ccc5c(c4)OCO5)C[C@H]2N3)cc1 (stereo not given in full)	5.25 and 4.81
O=C(c1cccc(F)c1)N1CCCCN2[C@H](CO)[C@H](c3ccc(/C=C/c4ccccc4)cc3)[C@H]2C1	3.85
Cc1ccc(-c2ccc([C@@H]3[C@H](CO)N4CCCCN(C(=O)c5ccc(F)cc5)C[C@@H]34)cc2)cc1	4.61
Fc1cccc(-c2ccc(C3[C@H]4CNC[C@@H]3N4Cc3ccccc3F)cc2)c1 (stereo not given in full)	4.22
COc1cc(CN2[C@@H]3CNC[C@H]2C3c2ccc(-c3ccccc3)cc2)cc(OC)c1 (stereo not given in full)	4.83
CCCC#Cc1ccc([C@H]2[C@@H](CO)N3CCCCN(S(=O)(=O)Cc4ccccc4)C[C@H]23)cc1	4.47
O=C(C1CCCCC1)N1CC2(C1)[C@H](c1ccccc1)[C@H](CO)N2Cc1ccc(Cl)cc1	4.47
O=C(Nc1ccc(C(F)(F)F)cc1)N1C[C@@H]2N[C@H](C1)C2c1ccc(/C=C/c2ccccc2)cc1 (stereo not given in full)	5.70 and 5.41

SMILES	pIC50
O=S(=O)(c1ccccc1)N1C[C@@H]2N[C@H](C1)C2c1ccc(-c2ccc(F)cc2)cc1 (stereo not given in full)	4.29
O=C(Nc1ccc(F)cc1)N1CCCCN2[C@H](CO)[C@H](c3ccc(-c4cccc(F)c4)cc3)[C@H]2C1	4.15
COc1cccc(-c2ccc(C3[C@H]4CNC[C@@H]3N4Cc3ccc(F)cc3)cc2)c1 (stereo not given in full)	4.92
C/C=C/c1ccc(C2[C@@H]3CN(Cc4ccc5c(c4)OCO5)C[C@H]2N3)cc1 (stereo not given in full)	4.33 and 4.25
O=C(Nc1ccc(F)cc1)N1[C@@H]2CNC[C@H]1C2c1ccc(/C=C/c2ccccc2)cc1 (stereo not given in full)	4.86
OC[C@@H]1Nc2ccc(C#Cc3cccc(F)c3)cc2[C@@H]2NCC[C@H]12	4.37
O=C(NC1CCCCC1)N1C[C@@H]2N[C@H](C1)C2c1ccc(-c2ccc(F)cc2)cc1 (stereo not given in full)	4.22
COc1cccc(-c2ccc(C3[C@@H]4CN(S(=O)(=O)c5cccc(OC)c5)C[C@H]3N4)cc2)c1 (stereo not given in full)	4.61
CCCN(C)C[C@@H]1OCCCC[C@@H](C)Oc2ccc(NC(=O)Nc3ccc(C(F)(F)F)cc3)cc2C(=O)N([C@H](C)CO)C[C@H]1C	4.50
CCCC#Cc1ccc([C@@H]2[C@H](CO)N3CCCCN(S(=O)(=O)c4ccccc4C)C[C@@H]23)cc1	4.62
Cc1ccccc1-c1ccc(C2[C@@H]3CN(S(=O)(=O)Cc4ccccc4)C[C@H]2N3)cc1 (stereo not given in full)	4.47
C(=C\c1ccc(C2[C@@H]3CN(Cc4ccc5c(c4)OCO5)C[C@H]2N3)cc1)/c1ccccc1 (stereo not given in full)	5.16 and 5.18
O=C(Nc1ccccc1)N1C[C@@H]2N[C@H](C1)C2c1ccc(-c2ccccc2F)cc1 (stereo not given in full)	4.28
O=C(Nc1ccc(F)cc1)N1[C@@H]2CNC[C@H]1C2c1ccc(-c2ccccc2)cc1 (stereo not given in full)	4.08
CCCNC(=O)C[C@@H]1CC[C@@H]2[C@H](COC[C@H](O)CN2C(=O)Nc2ccc(Cl)c(Cl)c2)O1	4.92
N#Cc1cccc(-c2ccc(C3[C@@H]4CN(Cc5ccccc5)C[C@H]3N4)cc2)c1 (stereo not given in full)	4.10
Cc1ccccc1-c1ccc([C@H]2[C@@H](CO)N3CCCCN(C(=O)Nc4ccc(F)cc4)C[C@H]23)cc1	4.56
Cc1ccccc1-c1ccc([C@H]2[C@H](CO)N3CCCCN(C(=O)Nc4cccc(F)c4)C[C@@H]23)cc1	4.54
O=C(NC[C@@H]1N[C@@H](CO)[C@H]1c1ccc(C2=CCCCC2)cc1)c1cccc(F)c1	4.95
O=C(Nc1ccccc1)N1CCCCN2[C@H](CO)[C@H](c3ccc(C#Cc4ccccc4)cc3)[C@H]2C1	5.03
Cc1ccccc1-c1ccc([C@@H]2[C@H](CO)N3CCCCN(C(=O)Nc4ccc(F)cc4)C[C@@H]23)cc1	4.86
c1ccc(CN2C[C@@H]3N[C@H](C2)C3c2ccc(-c3ccccc3)cc2)cc1 (stereo not given in full)	4.72 and 4.58

SMILES	pIC50
COc1cccc(S(=O)(=O)N2C[C@@H]3N[C@H](C2)C3c2ccc(/C=C/c3ccccc3)cc2)c1 (stereo not given in full)	4.90
COc1cccc(CN2[C@@H]3CNC[C@H]2C3c2ccc(-c3ccccc3C)cc2)c1 (stereo not given in full)	4.53
O=C(Nc1ccccc1)N1CCCCN2[C@H](CO)[C@@H](c3ccc(C#Cc4ccccc4)cc3)[C@H]2C1	4.48
COc1ccccc1CN1CC[C@@H]2[C@H](CO)Nc3ccc(C#Cc4ccccc4)cc3[C@@H]21	4.51
COc1cc(CN2C[C@@H]3N[C@H](C2)C3c2ccc(-c3cccc(OC)c3)cc2)cc(OC)c1 (stereo not given in full)	4.88 and 4.86
Cc1ccc(-c2ccc(C3[C@@H]4CN(S(=O)(=O)c5cccc(C)c5)C[C@H]3N4)cc2)cc1 (stereo not given in full)	5.06
COc1cccc(-c2ccc(C3[C@@H]4CN(Cc5cccc(F)c5)C[C@H]3N4)cc2)c1 (stereo not given in full)	5.02 and 5.12
COc1cccc(-c2ccc(C3[C@@H]4CN(S(=O)(=O)Cc5ccccc5)C[C@H]3N4)cc2)c1 (stereo not given in full)	4.28
O=C(Nc1ccc(C(F)(F)F)cc1)N1C[C@@H]2N[C@H](C1)C2c1ccc(-c2ccccc2)cc1 (stereo not given in full)	5.50 and 5.34
Cc1ccc(-c2ccc([C@H]3[C@@H](CO)N4CCCCN(C(=O)Nc5cccc(F)c5)C[C@H]34)cc2)cc1	5.35
Cc1cccc(S(=O)(=O)N2CCCCN3[C@H](CO)[C@H](c4ccc(C#CC5CC5)cc4)[C@H]3C2)c1	4.55
O=C(C[C@H]1CC[C@@H]2[C@H](COC[C@H](O)CN2C(=O)Nc2ccc(C(F)(F)F)cc2)O1)NCC1CCCCC1	5.21
Cc1ccc(-c2ccc([C@H]3[C@@H](CO)N4CCCCN(C(=O)Nc5ccccc5)C[C@H]34)cc2)cc1	4.42
O=C(Nc1ccccc1)N1CCCCN2[C@@H](CO)[C@@H](c3ccc(-c4ccccc4F)cc3)[C@@H]2C1	4.55
OC[C@H]1[C@@H](c2ccc(C#CC3CCCC3)cc2)[C@H]2CN(CCC(F)(F)F)CCCCN21	5.02
Fc1ccc(-c2ccc(C3[C@@H]4CN(Cc5ccccc5)C[C@H]3N4)cc2)cc1 (stereo not given in full)	5.23 and 4.50
Cc1ccc(S(=O)(=O)N2[C@@H]3CNC[C@H]2C3c2ccc(-c3ccccc3C)cc2)cc1 (stereo not given in full)	4.51
Cc1ccccc1-c1ccc(C2[C@H]3CNC[C@@H]2N3S(=O)(=O)c2ccccc2C)cc1 (stereo not given in full)	4.50
Cc1ccc(-c2ccc([C@@H]3[C@@H](CO)N4CCCCN(C(=O)c5ccc(F)cc5)C[C@H]34)cc2)cc1	4.46
O=C(c1ccc(F)cc1)N1CC(=O)N2[C@@H](CO)[C@H](c3ccc(C#CCC4CCCC4)cc3)[C@@H]2C1	4.80
Cc1ccc(S(=O)(=O)N2C[C@@H]3N[C@H](C2)C3c2ccc(/C=C/c3ccccc3)cc2)cc1 (stereo not given in full)	5.30
Cc1ccc(-c2ccc([C@@H]3[C@H](CO)N4CCCCN(S(=O)(=O)c5cccc(C)c5)C[C@@H]34)cc2)cc1	4.74

SMILES	pIC50
COc1ccc(-c2ccc(C3[C@H]4CNC[C@@H]3N4Cc3cc(OC)cc(OC)c3)cc2)cc1 (stereo not given in full)	4.96
COc1ccccc1NC(=O)N1CCCCN2[C@H](CO)[C@H](c3ccc(-c4ccc(C)cc4)cc3)[C@H]2C1	4.84
O=C(Nc1ccc(Cl)cc1)N1[C@@H]2CNC[C@H]1C2c1ccc(-c2ccccc2)cc1 (stereo not given in full)	4.22
COc1ccccc1C#Cc1ccc2c(c1)[C@H]1[C@H](CCN1C(=O)c1ccc(F)cc1)[C@H](CO)N2	6.12
Cc1ccccc1-c1ccc(C2[C@H]3CNC[C@@H]2N3S(=O)(=O)c2ccc(Cl)cc2)cc1 (stereo not given in full)	4.45
O=C(Nc1ccccc1)N1CCCCN2[C@@H](CO)[C@H](c3ccc(C#Cc4ccccc4)cc3)[C@@H]2C1	4.72
O=C(C[C@@H]1CC[C@H]2[C@@H](COC[C@@H](O)CN2C(=O)Nc2ccc(Cl)c(Cl)c2)O1)NC1CCC1	5.10
COc1cccc(-c2ccc3c(c2)[C@H]2[C@H](CCN2Cc2ccccc2OC)[C@H](CO)N3)c1	4.25
COc1ccccc1C#Cc1ccc2c(c1)[C@H]1[C@H](CCN1C(=O)c1ccncc1)[C@H](CO)N2	4.20
Cc1cccc(-c2ccc([C@H]3[C@@H](CO)N4CCCCN(CCC(F)(F)F)C[C@@H]34)cc2)c1	4.30
O=C(C[C@H]1CC[C@H]2[C@@H](COC[C@@H](O)CN2C(=O)Nc2cc(Cl)cc(Cl)c2)O1)N1CCOCC1	4.54
O=C(C[C@H]1CC[C@@H]2[C@H](COC[C@H](O)CN2C(=O)Nc2ccc(Cl)c(Cl)c2)O1)NC1CCC1	5.08
COc1ccc(S(=O)(=O)N2CCCCN3[C@@H](CO)[C@@H](c4ccc(C#CCC(C)C)cc4)[C@@H]3C2)cc1	4.87
Fc1ccccc1-c1ccc(C2[C@@H]3CN(Cc4ccccc4)C[C@H]2N3)cc1 (stereo not given in full)	5.33 and 5.11
O=C(NC[C@H]1N[C@H](CO)[C@@H]1c1ccc(C2=CCCCC2)cc1)c1ccc(F)cc1	4.54
O=S(=O)(c1ccc(F)cc1)N1C[C@@H]2N[C@H](C1)C2c1ccc(/C=C/c2ccccc2)cc1 (stereo not given in full)	5.06
Cc1cccc(-c2ccc(C3[C@@H]4CN(Cc5ccccc5F)C[C@H]3N4)cc2)c1 (stereo not given in full)	5.21
OC[C@H]1Nc2ccc(-c3ccc(F)cc3)cc2[C@H]2[C@@H]1CCN2Cc1ccc(F)cc1	4.35
COc1cccc(CN2C[C@@H]3N[C@H](C2)C3c2ccc(-c3ccccc3OC)cc2)c1 (stereo not given in full)	4.47
